Laboratory results published in patent publication US8778938B2, “Hepatitis C virus inhibitors” (priority 2010, dated 2014).

How the values were obtained:
HCV 1b genotype replicon = experiment: HCV replicon assay, qRT-PCR (HCV RNA detection), genotype 1b replicon EC50; type: cell-based; settings: Hepatitis C virus, read-out: 1b EC50
Source text: HCV replicon cell lines (kindly provided by R. Bartenschlager) isolated from colonies as described by Lohman et al. (Lohman et al. (1999) Science 285: 110-113, expressly incorporated by reference in its entirety) and used for all experiments. The HCV replicon has the nucleic acid sequence set forth in EMBL Accession No.: AJ242651, the coding sequence of which is from nucleotides 1801 to 8406.
The coding sequence of the published HCV replicon was synthesized and subsequently assembled in a modified plasmid pBR322 (Promega, Madison, Wis.) using standard molecular biology techniques. […]
EC50 values of single agent compounds were determined by HCV RNA detection using quantitative RT-PCR, according to the manufacturer's instructions, with a TAQMAN® One-Step RT-PCR Master Mix Reagents Kit (Cat #AB 4309169, Applied Biosystems) on an ABI Model 7500 thermocycler. EC50 values of combinations are similarly determined by HCV RNA detection using quantitative RT-PCR. The TAQMAN primers to use for detecting and quantifying HCV RNA obtained from Integrated DNA Technologies. HCV RNA is normalized to GAPDH RNA levels in drug-treated cells, which is detected and quantified using the Human GAPDH Endogenous Control Mix (Applied Biosystems, AB 4310884E). […] Chemical agent cytotoxicity is evaluated using an MTS assay according to the manufacturer's directions (Promega). […]

HCV 1a genotype replicon = experiment: HCV replicon assay, qRT-PCR (HCV RNA detection), genotype 1a replicon EC50; type: cell-based; settings: Hepatitis C virus, read-out: 1a EC50

COC(=O)N[C@H](C(=O)N1C[C@@H](C2CC2)C[C@H]1c1ncc(-c2ccc(-c3ccc(-c4cnc([C@@H]5C[C@H](C6CC6)CN5C(=O)[C@@H](NC(=O)OC)C(C)C)[nH]4)cc3)cc2)[nH]1)C(C)C [Compound A229]
EC50 (HCV 1b genotype replicon): 0.087 nM

COC(=O)N[C@H](C(=O)N1CCC[C@H]1c1nc(-c2ccc(-c3ccc(-c4c[nH]c([C@@H]5C[C@@]6(CCCO6)CN5C(=O)[C@@H](NC(=O)OC)C(C)C)n4)cc3)cc2)c[nH]1)C(C)C [Compound 83]
EC50 (HCV 1b genotype replicon): 0.019 nM

COC(=O)N[C@H](C(=O)N1CCC[C@H]1c1ncc(-c2ccc(-c3ccc(-c4cnc([C@@H]5C[C@H](C6CC6)CN5C(=O)[C@@H](NC(=O)OC)C(C)C)[nH]4)cc3)cc2)[nH]1)C(C)C [Compound A83]
EC50 (HCV 1a genotype replicon): 0.07 nM
